From article PMC7210949, “Flexibility of intrinsically disordered degrons in AUX/IAA proteins reinforces auxin co-receptor assemblies” (Nature Communications, 2020)

Experiments:
Experiment in all cases: [3H]IAA saturation radioligand binding
ASK1·TIR1·IAA12 = biological target: T1, ASK1·TIR1·IAA12 (Arabidopsis thaliana, UniProt Q38830+Q570C0)
T1 construct: full-length IAA12 as GST fusion from E. coli, GST kept; with SKP1-like protein 1A
T1 sequence (Q570C0 1-594): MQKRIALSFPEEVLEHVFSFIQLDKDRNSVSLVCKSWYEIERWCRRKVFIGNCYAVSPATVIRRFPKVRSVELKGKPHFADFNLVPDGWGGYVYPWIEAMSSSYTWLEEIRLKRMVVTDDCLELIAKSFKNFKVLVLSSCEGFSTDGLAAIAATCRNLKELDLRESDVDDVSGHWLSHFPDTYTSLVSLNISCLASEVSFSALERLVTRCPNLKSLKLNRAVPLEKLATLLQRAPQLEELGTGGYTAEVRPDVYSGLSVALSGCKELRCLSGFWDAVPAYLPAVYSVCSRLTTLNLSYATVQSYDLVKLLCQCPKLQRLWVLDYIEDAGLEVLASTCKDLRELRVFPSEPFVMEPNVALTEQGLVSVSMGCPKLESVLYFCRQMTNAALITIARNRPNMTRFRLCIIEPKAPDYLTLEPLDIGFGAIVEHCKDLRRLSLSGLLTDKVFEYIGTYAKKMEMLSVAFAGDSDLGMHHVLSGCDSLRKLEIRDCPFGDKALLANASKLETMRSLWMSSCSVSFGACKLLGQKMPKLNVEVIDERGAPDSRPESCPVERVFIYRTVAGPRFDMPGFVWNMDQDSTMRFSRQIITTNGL
T1 sequence (Q38830 1-239): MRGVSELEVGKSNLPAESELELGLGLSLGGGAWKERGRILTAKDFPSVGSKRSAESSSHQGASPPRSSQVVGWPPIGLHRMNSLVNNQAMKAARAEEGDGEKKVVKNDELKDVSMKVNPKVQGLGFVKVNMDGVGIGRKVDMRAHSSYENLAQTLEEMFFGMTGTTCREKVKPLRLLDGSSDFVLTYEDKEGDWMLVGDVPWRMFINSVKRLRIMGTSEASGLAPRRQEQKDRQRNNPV
T1 sequence (Q39255 1-160 partner): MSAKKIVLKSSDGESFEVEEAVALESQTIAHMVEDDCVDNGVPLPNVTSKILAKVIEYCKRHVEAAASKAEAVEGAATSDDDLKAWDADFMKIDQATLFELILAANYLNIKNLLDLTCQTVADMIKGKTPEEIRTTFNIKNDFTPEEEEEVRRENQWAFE

TIR1·IAA (7-7-7-12-7) = biological target: T2, TIR1·IAA (7-7-7-12-7); parameters: species or system Arabidopsis thaliana; details: labelled compound; 0.01 µM ASK1·TIR1, 0.3 µM GST-AUX/IAA chimera, on ice 1 h; one-site fit; n = 2
T2 construct: IAA7 with its degron tail replaced by that of IAA12 (one seamless polypeptide: DI, linker, core degron, PB1 from IAA7); GST fusion from E. coli; with SKP1-like protein 1A

TIR1·IAA (7-7-7-7-12) = biological target: T3, TIR1·IAA (7-7-7-7-12); parameters: species or system Arabidopsis thaliana; details: labelled compound; 0.01 µM ASK1·TIR1, 0.3 µM GST-AUX/IAA chimera, on ice 1 h; one-site fit; n = 2
T3 construct: IAA7 with its PB1 domain replaced by that of IAA12 (one seamless polypeptide: DI, linker, core degron, degron tail from IAA7); GST fusion from E. coli; with SKP1-like protein 1A

TIR1·IAA (12-12-12-7-12) = biological target: T4, TIR1·IAA (12-12-12-7-12); parameters: species or system Arabidopsis thaliana; details: labelled compound; 0.01 µM ASK1·TIR1, 0.3 µM GST-AUX/IAA chimera, on ice 1 h; one-site fit; n = 3
T4 construct: IAA12 with its degron tail replaced by that of IAA7 (one seamless polypeptide: DI, linker, core degron, PB1 from IAA12); GST fusion from E. coli; with SKP1-like protein 1A

TIR1·IAA (12-12-12-12-7) = biological target: T5, TIR1·IAA (12-12-12-12-7); parameters: species or system Arabidopsis thaliana; details: labelled compound; 0.01 µM ASK1·TIR1, 0.3 µM GST-AUX/IAA chimera, on ice 1 h; one-site fit; n = 3
T5 construct: IAA12 with its PB1 domain replaced by that of IAA7 (one seamless polypeptide: DI, linker, core degron, degron tail from IAA12); GST fusion from E. coli; with SKP1-like protein 1A

ASK1·TIR1·IAA7 = biological target: T6, ASK1·TIR1·IAA7 (Arabidopsis thaliana, UniProt Q38825+Q570C0)
T6 construct: full-length IAA7 as GST fusion from E. coli, GST kept; with SKP1-like protein 1A
T6 sequence (Q570C0 1-594): T1 sequence (Q570C0 1-594)
T6 sequence (Q38825 1-243): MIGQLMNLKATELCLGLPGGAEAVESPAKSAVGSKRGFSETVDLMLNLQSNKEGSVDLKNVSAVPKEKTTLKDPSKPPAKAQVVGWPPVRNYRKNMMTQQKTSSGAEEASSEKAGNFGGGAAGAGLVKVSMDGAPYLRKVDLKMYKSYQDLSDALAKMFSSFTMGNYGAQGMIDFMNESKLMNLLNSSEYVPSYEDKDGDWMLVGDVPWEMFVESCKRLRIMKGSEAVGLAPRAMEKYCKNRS
T6 sequence (Q39255 1-160 partner): T1 sequence (Q39255 1-160 partner)

## O=C(O)Cc1c[nH]c2ccccc12 [[3H]IAA]
ASK1·TIR1·IAA12
  Kd: ~226 nM
TIR1·IAA (7-7-7-12-7)
  Kd: ~57 nM
TIR1·IAA (7-7-7-7-12)
  Kd: ~43 nM
TIR1·IAA (12-12-12-7-12)
  Kd: ~79 nM
TIR1·IAA (12-12-12-12-7)
  Kd: ~133 nM
ASK1·TIR1·IAA7
  Kd: ~20 nM
